For eight compounds, EC50 results are on record in US20240246964A1 (Arbutus Biopharma Corporation, priority 2021, published 2024).

Structures are written as SMILES. Bounds are passed on as bounds.

This assay deals with human PD-L1 (Homo sapiens (Human), UniProt Q9NZQ7). Nature of the assay: T cell activation luciferase reporter cell culture system (T Cell Activation Assay). It counts as cell-based. Conditions: luciferase reporter assay; PD-L1 aAPC/CHO-K1 cells with PD-1 effector Jurkat T cells. On the technique in general: A reporter such as luciferase makes a cellular process visible.
human PD-L1, sequence (Q9NZQ7 19-290): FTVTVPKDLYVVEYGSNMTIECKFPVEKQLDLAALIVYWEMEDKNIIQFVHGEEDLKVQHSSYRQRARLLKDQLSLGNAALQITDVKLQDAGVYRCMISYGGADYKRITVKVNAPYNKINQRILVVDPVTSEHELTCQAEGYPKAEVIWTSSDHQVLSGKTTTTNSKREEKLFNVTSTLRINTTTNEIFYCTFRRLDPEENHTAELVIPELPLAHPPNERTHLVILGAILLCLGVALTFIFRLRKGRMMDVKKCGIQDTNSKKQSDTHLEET

Regarding `COc1nc(-c2ccnc(-c3cccc4c3CCC[C@@H]4Nc3nc(OC)c(CNC4(C(=O)O)CC4)cc3C(F)(F)F)c2Cl)ccc1CNC[C@@H]1CCC(=O)N1` [Example 704], the EC50 is no less than 10000 nM.
The result for `COc1cc(-c2nccc(-c3cccc4c3CCC[C@@H]4Nc3nc(OC)c(CNC4(C(=O)O)CC4)cc3C(F)(F)F)c2Cl)ccc1CNC[C@@H]1CCC(=O)N1` [Example 705, 1-(((6-(((S)-5-(3-Chloro-2-(3-methoxy-4-(((((S)-5-oxopyrrolidin-2-yl)methyl)amino)methyl)phenyl)pyridin-4-yl)-1,2,3,4-tetrahydronaphthalen-1-yl)amino)-2-methoxy-5-(trifluoromethyl)pyridin-3-yl)methyl)amino)cyclopropane-1-carboxylic acid] reads no less than 10000 nM.
As for `COc1nc(-c2ccnc(-c3cccc4c3CCC[C@@H]4Nc3nc(OC)c(CNC[C@@H]4CCC(=O)N4)cc3C(F)(F)F)c2Cl)ccc1CNC[C@@H]1CCC(=O)N1` [Example 709, (S)-5-((((3′-Chloro-6-methoxy-2′-((S)-5-((6-methoxy-5-(((((S)-5-oxopyrrolidin-2-yl)methyl)amino)methyl)-3-(trifluoromethyl)pyridin-2-yl)amino)-5,6,7,8-tetrahydronaphthalen-1-yl)-[2,4′-bipyridin]-5-yl)methyl)amino)methyl)pyrrolidin-2-one], the EC50 is no less than 10000 nM.
The result for `COc1cc(-c2nccc(-c3cccc4c3CCC[C@@H]4Nc3nc(OC)c(CNC[C@@H]4CCC(=O)N4)cc3C(F)(F)F)c2Cl)ccc1CNC[C@@H]1CCC(=O)N1` [Example 710, (S)-5-((((6-(((S)-5-(3-Chloro-2-(3-methoxy-4-(((((S)-5-oxopyrrolidin-2-yl)methyl)amino)methyl)phenyl)pyridin-4-yl)-1,2,3,4-tetrahydronaphthalen-1-yl)amino)-2-methoxy-5-(trifluoromethyl)pyridin-3-yl)methyl)amino)methyl)pyrrolidin-2-one] reads no less than 10000 nM; that for `COc1cc(-c2ncnc(-c3cccc(-c4ccc(CNCCO)c(OC)n4)c3Cl)c2Cl)ccc1CN1CC2(CNC(=O)C2)C1` [Example 711, 2-(4-(5-Chloro-6-(2-chloro-3-(5-(((2-hydroxyethyl)amino)methyl)-6-methoxypyridin-2-yl)phenyl)pyrimidin-4-yl)-2-methoxybenzyl)-2,6-diazaspiro[3.4]octan-7-one], 195 nM.
The result for `COc1nc(-c2cccc(-c3ccnc(-c4cc(OC)c5nc(CNCCCF)nn5c4)c3Cl)c2Cl)ccc1CNC1CCN(C(C)=O)CC1` [Example 713, 1-(4-(((6-(2-Chloro-3-(3-chloro-2-(2-(((3-fluoropropyl)amino)methyl)-8-methoxy-[1,2,4]triazolo[1,5-a]pyridin-6-yl)pyridin-4-yl)phenyl)-2-methoxypyridin-3-yl)methyl)amino)piperidin-1-yl)ethan-1-one] reads 130 nM; that for `COc1nc(-c2cccc(-c3ccnc(-c4cc(OC)c5nc(CN(C)CCO)nn5c4)c3Cl)c2Cl)ccc1CNC1CCN(C(C)=O)CC1` [Example 715, 1-(4-(((6-(2-Chloro-3-(3-chloro-2-(2-(((2-hydroxyethyl)(methyl)amino)methyl)-8-methoxy-[1,2,4]triazolo[1,5-a]pyridin-6-yl)pyridin-4-yl)phenyl)-2-methoxypyridin-3-yl)methyl)amino)piperidin-1-yl)ethan-1-one], 581 nM.
The value for `COc1cc(-c2ncnc(-c3cccc(-c4ccc(CNC5CCN(C(C)=O)CC5)c(OC)n4)c3Cl)c2OC)ccc1CNC1CCN(C(C)=O)CC1` [Example 717, 1-(4-(((6-(3-(6-(4-(((1-Acetylpiperidin-4-yl)amino)methyl)-3-methoxyphenyl)-5-methoxypyrimidin-4-yl)-2-chlorophenyl)-2-methoxypyridin-3-yl)methyl)amino)piperidin-1-yl)ethan-1-one] was no less than 10000 nM.

For orientation: EC50 means the concentration giving half of the maximal effect.
